Source: patent US20260138959A1, “QUINAZOLINE DERIVATIVE COMPOUND AND USE THEREOF” (VORONOI INC., priority 2021, published 2026)

Columns and labels:
Ba/F3-c-KIT(D816V) = test: Proliferation inhibitory activity on Ba/F3 cell (CellTiter-Glo, 72 hours), c-KIT(D816V); assay type: cell-based; details: Mus musculus, BaF3, read-out: Ba/F3 (nM) c-KIT (D816V) (GI50 class)
Experimental: (§1) Ba/F3-TEL-PDGFRα(WT), Ba/F3-TEL-PDGFβ(WT), Ba/F3-c-KIT(D816V) (Kyinno, #KC-0138), c-KIT V560G/D816V, c-KIT D814Y were seeded at 3×10^3/100 μl/well in a clear bottom white 96-well plate. A culture solution containing compounds of 12 concentrations (0.00001-2 mM) serially diluted in 3 folds and the DMSO control group was added at 0.5 μl/well each to a final concentration of 0.00005-10 μM, and then incubated in a CO2 incubator at 37° C. for 72 hours. After 72 hours, the plate treated with the compound was taken out, CellTiter-Glo® Assay (Promega) solution was treated with 100 μl/well, followed by mixing well. After mixing well for about 10 minutes at room temperature, […] was measured using a microplate reader. The data were presented as percentages in proportion to treated cells based on the vehicle, GI50 (nM) values were calculated using GraphPad Prism 8.3.0 (GraphPad software Inc., San Diego).
(§2) The inhibitory activities of Ba/F3 expressing PDGFR-α, PDGFR-β, c-KIT(D816V), c-KIT V560G/D816V, and c-KIT D814Y measured as described above were measured and shown in Table 7 below (A: GI50≤200 nM; B: 200 nM<GI50≤500 nM; C: GI50>500 nM).

c-KIT V560G/D816V = test: Proliferation inhibitory activity on Ba/F3 cell (CellTiter-Glo, 72 hours), c-KIT V560G/D816V; assay type: cell-based; details: Mus musculus, BaF3, c-KIT V560G/D816V cells, read-out: Cell (nM) c-KIT V560G/D816V (GI50 class)
Experimental: as §1, §2

| SMILES | GI50 (Ba/F3-c-KIT(D816V)) | GI50 (c-KIT V560G/D816V) |
| --- | --- | --- |
| COc1cc2c(-c3ccc(NC(=O)Cc4ccc(C(F)(F)F)cc4)cc3)ncnc2cc1OCC1CCCN(C(=O)OC(C)(C)C)C1 (stereo not shown) [Example 14, tert-butyl 3-(((6-methoxy-4-(4-(2-(4-(trifluoromethyl)phenyl)acetamido)phenyl)quinazolin-7-yl)oxy)methyl)piperidin-1-carboxylate] | > 500 nM |  |
| COc1cc2c(-c3ccc(NC(=O)Cc4ccc(C(F)(F)F)cc4)cc3)ncnc2cc1OCC1CCN(C(=O)OC(C)(C)C)CC1 [Example 15, tert-butyl 4-(((6-methoxy-4-(4-(2-(4-(trifluoromethyl)phenyl)acetamido)phenyl)quinazolin-7-yl)oxy)methyl)piperidin-1-carboxylate] |  | > 500 nM |
| COc1cc2c(-c3ccc(NC(=O)Cc4ccc(C(F)(F)F)cc4)cc3)ncnc2cc1OCC1CCCNC1 (stereo not shown) [Example 16, N-(4-(6-methoxy-7-(piperidin-3-ylmethoxy)quinazolin-4-yl)phenyl)-2-(4-(trifluoromethyl)phenyl)acetamide] | ≤ 200 nM |  |
| COc1cc2c(-c3ccc(NC(=O)Cc4ccc(C(F)(F)F)cc4)cc3)ncnc2cc1OCC1CCNCC1 [Example 17, N-(4-(6-methoxy-7-(piperidin-4-ylmethoxy)quinazolin-4-yl)phenyl)-2-(4-(trifluoromethyl)phenyl)acetamide] |  | ≤ 200 nM |
| COc1cc2c(-c3ccc(NC(=O)Cc4ccc(C(F)(F)F)cc4)cc3)ncnc2cc1OCCCN1CC2(C1)CN(C(=O)OC(C)(C)C)C2 [Example 19] | ≤ 200 nM |  |
| COc1cc2c(-c3ccc(NC(=O)Cc4ccc(C(F)(F)F)cc4)cc3)ncnc2cc1OCCCN1CC2(CNC2)C1 [Example 20, N-(4-(7-(3-(2,6-diazaspiro[3.3]heptane-2-yl)propoxy)-6-methoxyquinazolin-4-yl)phenyl)-2-(4-(trifluoromethyl)phenyl)acetamide] | > 500 nM |  |
| CCN1CC2(C1)CN(CCCOc1cc3ncnc(-c4ccc(NC(=O)Cc5ccc(C(F)(F)F)cc5)cc4)c3cc1OC)C2 [Example 21, N-(4-(7-(3-(6-ethyl-2,6-diazaspiro[3.3]heptane-2-yl)propoxy)-6-methoxyquinazolin-4-yl)phenyl)-2-(4-(trifluoromethyl)phenyl)acetamide] | ≤ 200 nM |  |
| COc1cc2c(-c3ccc(NC(=O)Cc4ccc(C(F)(F)F)cc4)cc3)ncnc2cc1OCCCNc1cnn(C)c1 [Example 26, N-(4-(6-methoxy-7-(3-((1-methyl-1H-pyrazol-4-yl)amino)propoxy)quinazolin-4-yl)phenyl)-2-(4-(trifluoromethyl)phenyl)acetamide] | ≤ 200 nM |  |
| COc1cc2c(-c3ccc(NC(=O)Cc4ccc(C(F)(F)F)cc4)cc3)ncnc2cc1OC[C@@H]1CCNC1 [Example 38, (R)-N-(4-(6-methoxy-7-(pyrrolidin-3-ylmethoxy)quinazolin-4-yl)phenyl)-2-(4-(trifluoromethyl)phenyl)acetamide] | ≤ 200 nM |  |
| COc1cc2c(-c3ccc(NC(=O)C(C)(C)c4ccc(F)cc4)cc3)ncnc2cc1OCC1CCNCC1 [Example 88, 2-(4-fluorophenyl)-N-(4-(6-methoxy-7-(piperidin-4-ylmethoxy)quinazolin-4-yl)phenyl)-2-methylpropanamide] |  | 200 to 500 nM |
| COc1cc2c(-c3ccc(NC(=O)C4(c5ccc(F)cc5)CC4)cc3)ncnc2cc1OCC1CCNCC1 [Example 91, 1-(4-fluorophenyl)-N-(4-(6-methoxy-7-(piperidin-4-ylmethoxy)quinazolin-4-yl)phenyl)cyclopropane-1-carboxamide] |  | 200 to 500 nM |
| COCCN1CCC(COc2cc3ncnc(-c4ccc(NC(=O)C5(c6ccc(F)cc6)CC5)cc4)c3cc2OC)CC1 [Example 92, 1-(4-fluorophenyl)-N-(4-(6-methoxy-7-((1-(2-methoxyethyl)piperidin-4-yl)methoxy)quinazolin-4-yl)phenyl)cyclopropane-1-carboxamide] |  | 200 to 500 nM |
| CCN1CCC(COc2cc3ncnc(-c4ccc(NC(=O)C5(c6ccc(F)cc6)CC5)cc4)c3cc2OC)CC1 [Example 93, N-(4-(7-((1-ethylpiperidin-4-yl)methoxy)-6-methoxyquinazolin-4-yl)phenyl)-1-(4-fluorophenyl)cyclopropane-1-carboxamide] |  | 200 to 500 nM |
| COCCN1CCC(COc2cc3ncnc(-c4ccc(NC(=O)Cn5cc(C(C)C)nn5)cc4)c3cc2OC)CC1 [Example 94, 2-(4-isopropyl-1H-1,2,3-triazole-1-yl)-N-(4-(6-methoxy-7-((1-(2-methoxyethyl)piperidin-4-yl)methoxy)quinazolin-4-yl)phenyl)acetamide] |  | > 500 nM |
| COCCN1CCC(COc2cc3ncnc(-c4ccc(NC(=O)Cn5cc(C(C)(C)C)nn5)cc4)c3cc2OC)CC1 [Example 95, 2-(4-(tert-butyl)-1H-1,2,3-triazole-1-yl)-N-(4-(6-methoxy-7-((1-(2-methoxyethyl)piperidin-4-yl)methoxy)quinazolin-4-yl)phenyl)acetamide] |  | > 500 nM |
| COc1cc2c(-c3ccc(NC(=O)Cc4ccc(C(F)(F)F)cc4)cc3)ncnc2cc1OCC1CCN(C(C)=O)CC1 [Example 102, N-(4-(7-((1-acetylpiperidin-4-yl)methoxy)-6-methoxyquinazolin-4-yl)phenyl)-2-(4-(trifluoromethyl)phenyl)acetamide] |  | ≤ 200 nM |
| COc1ccc(CC(=O)Nc2ccc(-c3ncnc4cc(OCC5CCN(C(C)=O)CC5)c(OC)cc34)cc2)cn1 [Example 103, N-(4-(7-((1-acetylpiperidin-4-yl)methoxy)-6-methoxyquinazolin-4-yl)phenyl)-2-(6-methoxypyridin-3-yl)acetamide] |  | 200 to 500 nM |
| COc1cc2c(-c3ccc(NC(=O)Cc4ccc(C(F)(F)F)nc4)cc3)ncnc2cc1OCC1CCN(C(C)=O)CC1 [Example 104, N-(4-(7-((1-acetylpiperidin-4-yl)methoxy)-6-methoxyquinazolin-4-yl)phenyl)-2-(6-(trifluoromethyl)pyridin-3-yl)acetamide] |  | 200 to 500 nM |
| COc1cc2c(-c3ccc(NC(=O)Cn4cc(C(C)C)nn4)cc3)ncnc2cc1OCC1CCN(C)CC1 [Example 105, 2-(4-isopropyl-1H-1,2,3-triazole-1-yl)-N-(4-(6-methoxy-7-((1-methylpiperidin-4-yl)methoxy)quinazolin-4-yl)phenyl)acetamide] |  | > 500 nM |
| COc1cc2c(-c3ccc(NC(=O)Cn4cc(C(C)(C)C)nn4)cc3)ncnc2cc1OCC1CCN(C)CC1 [Example 106, 2-(4-(tert-butyl)-1H-1,2,3-triazole-1-yl)-N-(4-(6-methoxy-7-((1-methylpiperidin-4-yl)methoxy)quinazolin-4-yl)phenyl)acetamide] |  | > 500 nM |
| COc1cc2c(-c3ccc(NC(=O)Cn4cc(C(C)C)nn4)cc3)ncnc2cc1OCC1CCN(C(C)=O)CC1 [Example 107, N-(4-(7-((1-acetylpiperidin-4-yl)methoxy)-6-methoxyquinazolin-4-yl)phenyl)-2-(4-isopropyl-1H-1,2,3-triazole-1-yl)acetamide] |  | > 500 nM |
| COc1cc2c(-c3ccc(NC(=O)Cn4cc(C(C)(C)C)nn4)cc3)ncnc2cc1OCC1CCN(C(C)=O)CC1 [Example 108, N-(4-(7-((1-acetylpiperidin-4-yl)methoxy)-6-methoxyquinazolin-4-yl)phenyl)-2-(4-(tert-butyl)-1H-1,2,3-triazole-1-yl)acetamide] |  | > 500 nM |
| CCN1CCCC(COc2cc3ncnc(-c4ccc(NC(=O)Cn5cc(C(C)C)nn5)cc4)c3cc2OC)C1 (stereo not shown) [Example 111, N-(4-(7-((1-ethylpiperidin-3-yl)methoxy)-6-methoxyquinazolin-4-yl)phenyl)-2-(4-isopropyl-1H-1,2,3-triazole-1-yl)acetamide] |  | > 500 nM |
| CCN1CCCC(COc2cc3ncnc(-c4ccc(NC(=O)Cn5cc(C(C)(C)C)nn5)cc4)c3cc2OC)C1 (stereo not shown) [Example 112, 2-(4-(tert-butyl)-1H-1,2,3-triazole-1-yl)-N-(4-(7-((1-ethylpiperidin-3-yl)methoxy)-6-methoxyquinazolin-4-yl)phenyl)acetamide] |  | > 500 nM |
| COCCN1CCC(COc2cc3ncnc(-c4ccc(NC(=O)CCCc5ccccc5)cc4)c3cc2OC)CC1 [Example 114, N-(4-(6-methoxy-7-((1-(2-methoxyethyl)piperidin-4-yl)methoxy)quinazolin-4-yl)phenyl)-4-phenylbutanamide] |  | 200 to 500 nM |
| COCCOc1cc2ncnc(-c3ccc(NC(=O)Cc4ccc(C(F)(F)F)cc4)cc3)c2cc1OC [Example 117, N-(4-(6-methoxy-7-(2-methoxyethoxy)quinazolin-4-yl)phenyl)-2-(4-(trifluoromethyl)phenyl)acetamide] |  | ≤ 200 nM |
| COc1cc2c(-c3ccc(NC(=O)Cn4cc(C(C)(C)C)nn4)cc3)ncnc2cc1OCC1CCN(C(C)C)CC1 [Example 119, 2-(4-(tert-butyl)-1H-1,2,3-triazole-1-yl)-N-(4-(7-((1-isopropylpiperidin-4-yl)methoxy)-6-methoxyquinazolin-4-yl)phenyl)acetamide] |  | > 500 nM |
| COc1cc2c(-c3ccc(NC(=O)Cn4cc(C(C)C)nn4)cc3)ncnc2cc1OCC1CCN(C(C)C)CC1 [Example 120, 2-(4-isopropyl-1H-1,2,3-triazole-1-yl)-N-(4-(7-((1-isopropylpiperidin-4-yl)methoxy)-6-methoxyquinazolin-4-yl)phenyl)acetamide] |  | > 500 nM |
